Values of other authors in article PMC11226190 (Drug Design, Development and Therapy, 2024).

Settings: comparable publication

In the case of `NC(=O)CI` [Iodoacetamide], the “second order rate constant, DTNB assay” value is listed as 2.5 M⁻¹ s⁻¹.
